The values that follow come from ChEMBL document CHEMBL2086231, “Novel pleuromutilin derivatives as antibacterial agents: synthesis, biological evaluation and molecular docking studies” (2012).

Converted amounts (≈) assume the structure as drawn.

Format in all cases: functional
In test [1] the test system is Staphylococcus epidermidis. The test can be described thus: Antibacterial activity against methicillin-resistant Staphylococcus epidermidis isolate cpu3889 after 18 to 20 hrs by agar dilution method. A general note: Agar dilution tests growth on a series of plates holding different concentrations.
The subject of test [2] is Staphylococcus aureus. The test can be described thus: Antibacterial activity against methicillin-resistant Staphylococcus aureus isolate cpu1098 after 18 to 20 hrs by agar dilution method.
The test system of test [3] is Staphylococcus epidermidis. The test can be described thus: Antibacterial activity against methicillin-resistant Staphylococcus epidermidis isolate cpu2736 after 18 to 20 hrs by agar dilution method.
In test [4] the test system is Staphylococcus epidermidis. Briefly: Antibacterial activity against methicillin-sensitive Staphylococcus epidermidis isolate cpu2089 after 18 to 20 hrs by agar dilution method.
The test system of test [5] is Staphylococcus aureus. The test can be described thus: Antibacterial activity against methicillin-resistant Staphylococcus aureus isolate cpu0887 after 18 to 20 hrs by agar dilution method.
In test [6] the test system is Staphylococcus aureus. The test can be described thus: Ratio of tiamulin MIC to compound MIC for methicillin-resistant Staphylococcus aureus isolate cpu0887.
In test [7] the test system is Staphylococcus aureus. The test can be described thus: Ratio of amoxicillin MIC to compound MIC for methicillin-resistant Staphylococcus aureus isolate cpu3256.
Test [8] concerns Staphylococcus epidermidis. Briefly: Antibacterial activity against methicillin-sensitive Staphylococcus epidermidis isolate cpu1561 after 18 to 20 hrs by agar dilution method.
In test [9] the test system is Staphylococcus aureus. The test can be described thus: Antibacterial activity against methicillin-resistant Staphylococcus aureus isolate cpu0446 after 18 to 20 hrs by agar dilution method.
Test [10] deals with Staphylococcus aureus. Briefly: Antibacterial activity against methicillin-resistant Staphylococcus aureus isolate cpu3256 after 18 to 20 hrs by agar dilution method.
In test [11] the test system is Staphylococcus aureus. The test can be described thus: Antibacterial activity against methicillin-sensitive Staphylococcus aureus isolate cpu1344 after 18 to 20 hrs by agar dilution method.
Test [12] has as its system Staphylococcus aureus. The test can be described thus: Ratio of tiamulin MIC to compound MIC for methicillin-resistant Staphylococcus aureus isolate cpu3256.
For test [13], the system named is Staphylococcus epidermidis. Briefly: Antibacterial activity against methicillin-resistant Staphylococcus epidermidis isolate cpu3569 after 18 to 20 hrs by agar dilution method.
Test [14] concerns Staphylococcus epidermidis. The test can be described thus: Antibacterial activity against methicillin-sensitive Staphylococcus epidermidis isolate cpu0347 after 18 to 20 hrs by agar dilution method.
Test [15] deals with Staphylococcus aureus. The test can be described thus: Ratio of tiamulin MIC to compound MIC for methicillin-resistant Staphylococcus aureus isolate cpu1098.
The test system of test [16] is Staphylococcus epidermidis. Briefly: Antibacterial activity against methicillin-sensitive Staphylococcus epidermidis isolate cpu0315 after 18 to 20 hrs by agar dilution method.
Test [17] has as its system Staphylococcus aureus. Briefly: Antibacterial activity against methicillin-sensitive Staphylococcus aureus isolate cpu0587 after 18 to 20 hrs by agar dilution method.
The test system of test [18] is Staphylococcus aureus. Briefly: Antibacterial activity against methicillin-sensitive Staphylococcus aureus isolate cpu1044 after 18 to 20 hrs by agar dilution method.
The test system of test [19] is Staphylococcus aureus. The test can be described thus: Ratio of amoxicillin MIC to compound MIC for methicillin-resistant Staphylococcus aureus isolate cpu1098.
In test [20] the test system is Staphylococcus aureus. The test can be described thus: Antibacterial activity against methicillin-sensitive Staphylococcus aureus isolate cpu0211 after 18 to 20 hrs by agar dilution method.
Test [21] relates to Staphylococcus aureus. The test can be described thus: Ratio of tiamulin MIC to compound MIC for methicillin-resistant Staphylococcus aureus isolate cpu0446.
Test [22] relates to Staphylococcus aureus. Briefly: Ratio of amoxicillin MIC to compound MIC for methicillin-resistant Staphylococcus aureus isolate cpu0446.
Test [23] deals with Staphylococcus aureus. Briefly: Ratio of amoxicillin MIC to compound MIC for methicillin-resistant Staphylococcus aureus isolate cpu0887.
Test [24] relates to Staphylococcus epidermidis. The test can be described thus: Antibacterial activity against methicillin-resistant Staphylococcus epidermidis isolate cpu2623 after 18 to 20 hrs by agar dilution method.

For `C=C[C@]1(C)C[C@@H](OC(=O)CSCc2csc(N)n2)[C@]2(C)[C@H](C)CC[C@]3(CCC(=O)[C@H]32)[C@@H](C)[C@@H]1O`, the minimal inhibitory concentration (MIC) in [1] is 0.125 µg/mL (≈ 0.247 µM); in test [2], 0.5 µg/mL (≈ 0.987 µM); in test [3], 0.125 µg/mL (≈ 0.247 µM); in test [4], 0.125 µg/mL (≈ 0.247 µM); in test [5], 0.0625 µg/mL (≈ 0.123 µM); in test [8], 0.125 µg/mL (≈ 0.247 µM). Besides, the MIC in test [9] is 0.25 µg/mL (≈ 0.493 µM); in test [10], 0.5 µg/mL (≈ 0.987 µM); in test [11], 0.125 µg/mL (≈ 0.247 µM); in test [13], 0.125 µg/mL (≈ 0.247 µM); in [14], 0.125 µg/mL (≈ 0.247 µM); in test [16] it was 0.125 µg/mL (≈ 0.247 µM). For the same compound, the MIC in test [17] was found to be 2 µg/mL (≈ 3.95 µM); in test [18], 2 µg/mL (≈ 3.95 µM); in test [20] it was 0.5 µg/mL (≈ 0.987 µM); in test [24], 0.125 µg/mL (≈ 0.247 µM). Further, the Ratio in [6], in test [7], in [12], in test [15], in test [19] and in [21] was 4 throughout. For the same compound, the Ratio in test [22] and in [23] was 4 in each case.
`C=C[C@]1(C)C[C@@H](OC(=O)CSCc2csc(NC(=O)CN(CC)CC)n2)[C@]2(C)[C@H](C)CC[C@]3(CCC(=O)[C@H]32)[C@@H](C)[C@@H]1O`: the MIC came out at 2 µg/mL (≈ 3.23 µM) in [1]; 0.5 µg/mL (≈ 0.807 µM) in test [2]; 0.25 µg/mL (≈ 0.403 µM) in test [3]; 0.25 µg/mL (≈ 0.403 µM) in test [4]; 0.25 µg/mL (≈ 0.403 µM) in [5]; 0.25 µg/mL (≈ 0.403 µM) in [8]. Further, the MIC in test [9] came out at 0.5 µg/mL (≈ 0.807 µM); in [10], 2 µg/mL (≈ 3.23 µM); in test [11] it was 0.25 µg/mL (≈ 0.403 µM); in test [13] it was 0.25 µg/mL (≈ 0.403 µM); in test [14], 0.25 µg/mL (≈ 0.403 µM); in [16], 0.25 µg/mL (≈ 0.403 µM). Also, the minimum inhibitory concentration (MIC) in test [17] was determined as 8 µg/mL (≈ 12.9 µM); in test [18], 1 µg/mL (≈ 1.61 µM); in test [20], 1 µg/mL (≈ 1.61 µM); in [24], 0.25 µg/mL (≈ 0.403 µM).
Consider `C=C[C@]1(C)C[C@@H](OC(=O)CSCc2csc(NC(=O)CN(CCC)CCC)n2)[C@]2(C)[C@H](C)CC[C@]3(CCC(=O)[C@H]32)[C@@H](C)[C@@H]1O`, for which the MIC in [1] is 2 µg/mL (≈ 3.09 µM); in [2], 1 µg/mL (≈ 1.54 µM); in test [3] it was 2 µg/mL (≈ 3.09 µM); in [4], 0.5 µg/mL (≈ 0.772 µM); in [5] it was 0.5 µg/mL (≈ 0.772 µM); in test [8] it was 4 µg/mL (≈ 6.17 µM). Also, the MIC was 0.5 µg/mL (≈ 0.772 µM) in test [9]; 1 µg/mL (≈ 1.54 µM) in test [10]; 1 µg/mL (≈ 1.54 µM) in test [11]; 4 µg/mL (≈ 6.17 µM) in [13]; 0.5 µg/mL (≈ 0.772 µM) in [14]; 8 µg/mL (≈ 12.3 µM) in test [16]. Moreover, the MIC in [17], in test [18], in [20] and in [24] was 0.5 µg/mL (≈ 0.772 µM) in each case.
On to `C=C[C@]1(C)C[C@@H](OC(=O)CSCc2csc(NC(=O)CN(CCCC)CCCC)n2)[C@]2(C)[C@H](C)CC[C@]3(CCC(=O)[C@H]32)[C@@H](C)[C@@H]1O`, for which the MIC turned out to be 16 µg/mL (≈ 23.7 µM) in [1]; 8 µg/mL (≈ 11.8 µM) in test [2]; 16 µg/mL (≈ 23.7 µM) in test [3]; 4 µg/mL (≈ 5.92 µM) in test [4]; 32 µg/mL (≈ 47.3 µM) in test [5]; 16 µg/mL (≈ 23.7 µM) in [8]. The MIC in test [9] came out at 8 µg/mL (≈ 11.8 µM); in test [10], 8 µg/mL (≈ 11.8 µM); in test [11] it was 16 µg/mL (≈ 23.7 µM); in [13], 8 µg/mL (≈ 11.8 µM); in test [14], 8 µg/mL (≈ 11.8 µM); in [16], 8 µg/mL (≈ 11.8 µM). The MIC in [17], in [18], in test [20] and in test [24] was 4 µg/mL (≈ 5.92 µM) each time.
For the compound `C=C[C@]1(C)C[C@@H](OC(=O)CSCc2csc(NC(=O)CN3CCCC3)n2)[C@]2(C)[C@H](C)CC[C@]3(CCC(=O)[C@H]32)[C@@H](C)[C@@H]1O`, the MIC came to 0.25 µg/mL (≈ 0.405 µM) in test [1]; 0.25 µg/mL (≈ 0.405 µM) in [2]; 0.5 µg/mL (≈ 0.809 µM) in test [3]; 0.125 µg/mL (≈ 0.202 µM) in test [4]; 0.5 µg/mL (≈ 0.809 µM) in test [5]; 0.5 µg/mL (≈ 0.809 µM) in test [8]. Also, the MIC in test [9] worked out at 0.25 µg/mL (≈ 0.405 µM); in test [10], 0.25 µg/mL (≈ 0.405 µM); in test [11], 0.25 µg/mL (≈ 0.405 µM); in test [13] it was 0.5 µg/mL (≈ 0.809 µM); in test [14], 0.25 µg/mL (≈ 0.405 µM); in test [16], 2 µg/mL (≈ 3.24 µM). Further, the MIC in test [17] was found to be 0.125 µg/mL (≈ 0.202 µM); in test [18], 0.25 µg/mL (≈ 0.405 µM); in test [20], 0.125 µg/mL (≈ 0.202 µM); in [24] it was 0.5 µg/mL (≈ 0.809 µM).

As a reminder, the MIC is the least concentration at which growth counts as inhibited. Read a low MIC as inhibition by little substance.
